Read-outs that look alike come from different tables or passages of the source.
Experiments:
[1] = test system: isolierten Aortenringen von Kaninchen; assay: Inhibition of angiotensin II-induced contraction of isolated rabbit aortic rings; assay type: cell-based; settings: isolated rabbit aortic rings in vitro; effect at 3rd (submaximal) agonist concentration; read-out: IC50 gegen Kontraktionen, induziert durch AII
Method: Kaninchen beiderlei Geschlechts werden durch Nackenschlag betäubt und entblutet, oder fallweise mit Nembutal (ca. 60 - 80 mg/kg i.v.) narkotisiert und durch Öffnung des Thorax getötet. Die Thoraxaorta wird entnommen, von anhaftendem Bindegewebe befreit, in 1,5 mm breite Ringsegmente geteilt und einzeln unter einer Anfangsbelastung von ca. 3,5 g in 10 ml Organbäder mit auf 37°C temperierter, Carbogen-begaster Krebs-Henseleit-Nährlösung folgender Zusammensetzung: 119 mmol/l NaCl; 2,5 mmol/l CaCl₂ x 2 H₂O; 1,2 mmol/l KH₂PO₄; 10 mmol/l Glucose; 4,8 mmol/l KCl; 1,4 mmol/l MgSO₄ x 7 H₂O und 25 mmol/l NaHCO₃ verbracht.
Die Kontraktionen werden isometrisch durch Statham UC2-Zellen über Brückenverstärker (ifd Mülheim bzw. DSM Aalen) erfaßt und mittels A/D-Wandler (System 570, Keithley München) digitalisiert sowie ausgewertet. Die Durchführung von Agonistdosiswirkungskurven (DWK) erfolgt stündlich. Mit jeder DWK werden 3 bzw. 4 Einzelkonzentrationen im 4 min-Abstand in die Bäder appliziert. Nach Ende der DWK und darauffolgender Auswaschzyklen (16 mal jeweils ca. 5 sec/min mit der o.a. Nährlösung) schließt sich eine 28-minütige Ruhe- bzw. Inkubationsphase an, innerhalb derer die Kontraktionen in der Regel wieder den Ausgangswert erreichen.
Die Höhe der im Normalfall 3. […]

Angiotensin II-Rezeptor = target: T1, Angiotensin II-Rezeptor (Bos taurus, UniProt P25104); assay: Angiotensin II receptor binding on membrane fractions of bovine adrenal cortex (3H-angiotensin II); parameters: species or system Rind; settings: bovine adrenal cortex membranes, 3H-Angiotensin II 3-5 nM, 60 min, room temperature
T1 construct: an partiell gereinigten Membranfraktionen boviner NNR mit radioaktivem Angiotensin II; from tissue; host or cells: bovine adrenal cortex, partially purified membrane fractions
T1 sequence (P25104 1-359): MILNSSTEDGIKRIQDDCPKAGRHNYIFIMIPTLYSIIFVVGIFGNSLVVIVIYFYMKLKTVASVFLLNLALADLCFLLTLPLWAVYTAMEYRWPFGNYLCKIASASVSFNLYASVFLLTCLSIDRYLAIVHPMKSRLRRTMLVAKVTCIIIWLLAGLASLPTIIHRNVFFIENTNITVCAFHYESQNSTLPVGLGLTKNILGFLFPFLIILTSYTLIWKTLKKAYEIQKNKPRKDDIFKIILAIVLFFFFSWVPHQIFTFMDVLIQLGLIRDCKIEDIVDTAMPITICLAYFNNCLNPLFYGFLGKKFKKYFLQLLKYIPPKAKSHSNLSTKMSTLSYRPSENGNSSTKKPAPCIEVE
Method: Nebennierenrinden vom Rind (NNR), die frisch entnommen und sorgfältig von Mark von Kapsel befreit sind, werden in Sucrose-Lösung (0,32 M) mit Hilfe eines Ultra-Turrax (Janke & Kunkel, Staufen i.B.) zu grobem Membran-Homogenat zerkleinert und in zwei Zentrifugationsschritten zu Membranfraktionen partiell aufgereinigt. Die Untersuchungen zur Rezeptor-Bindung werden an partiell gereinigten Membranfraktionen boviner NNR mit radioaktivem Angiotensin II in einem Assay-Volumen von 0,25 ml durchgeführt, das im einzelnen die partiell gereinigten Membranen (50 - 80 µg), ³H-Angiotensin II (3-5 nM), Test-Pufferlösung (50 mM Tris, pH 7,2, 5 mM MgCl₂ sowie die zu untersuchenden Substanzen enthält. Nach einer Inkubationszeit von 60 min bei Raumtemperatur wird die nicht gebundene Radioaktivität der Proben mittels angefeuchteter Glasfaserfilter (Whatman GF/C) separiert und die gebundene Radioaktivität nach Waschung des Proteins mit eiskalter Pufferlösung (50 mM Tris/HCl, pH 7,4, 5% PEG 6000) in einem Szintillationscocktail […] gemessen. Die Analyse der Rohdaten erfolgte mit Computer-Programmen zu Ki- bzw. IC₅₀-Werten (Ki: für die verwendete Radioaktivität korrigierte IC₅₀-Werte; IC₅₀-Werte: Konzentration bei der die zu untersuchende Substanz eine 50%ige Hemmung der spezifischen Bindung des Radioliganden bewirkt).

SMILES | Ki (Angiotensin II-Rezeptor) | also measured
CCCCc1nc2cccc(C(=O)OC)c2n1Cc1ccc(S(=O)(=O)N2CCCC2C(=O)O)cc1Cl (stereo in doubt) [Beispiel 2, (S)-2-Butyl-1-[3-chlor-1-(N-2'-carboxy-pyrrolidinyl)-sulfonyl]-7-methoxycarbonyl-benz[d]imidazol] | – | IC50 [1]: 0.046 µM
CCCCc1nc2cccc(C(=O)O)c2n1Cc1ccc(S(=O)(=O)N2CCC[C@H]2C(=O)O)cc1Cl [Beispiel 3, (S)-2-Butyl-7-carboxy-1-[3-chlor-1-(N-2-carboxy-pyrrolidinyl)-sulfonyl]-benz[d]imidazol] | 0.048 µM | –
CCCCc1nc2cccc(C(=O)OC)c2n1Cc1ccc(S(=O)(=O)N2CCC[C@H]2C(=O)OC(C)(C)C)cc1F [Beispiel 4] | – | Ki (Angiotensin II-Rezeptor; read-out: Ki): 0.735 µM
CCCCc1nc2cccc(C(=O)O)c2n1Cc1ccc(S(=O)(=O)N2CCC[C@H]2C(=O)O)cc1Cl [Beispiel 7, (S)-2-Butyl-7-carboxy-1-[3-chlor-1-(N-2-carboxypyrrolidinyl)-sulfonyl]benz[d]imidazol Bis Kaliumsalz] | 0.26 µM | –

Reference: patent publication EP0643060A2, “Sulfonylbenzyl-substituted benzimidazoles, process for their preparation, and their pharmaceutical use” (BAYER AG, priority 1993, dated 1995)
